Read-outs that look alike come from different tables or passages of the source. Numbered stars: 1 amine (or outer) side, 2 acyl side, 3 side chain; on linkers, the order of the positions; unused ones are H or OH. Square brackets hold non-standard residues; d marks the D form. Peptide text beside a SMILES is read from it. * marks the point of attachment. X20 = O=C(CCCCCO[C@@H]1O[C@H](CO)[C@@H](O)[C@H](O)[C@H]1N[*:1])[*:2]; Phe(4-NO2) = N[C@@H](Cc1ccc([N+](=O)[O-])cc1)C(=O)O; NHOctadecyl = CCCCCCCCCCCCCCCCCCN*; Brosyl = O=S(=O)(c1ccc(Br)cc1)*; Cha = N[C@@H](CC1CCCCC1)C(=O)O; Morpholide = C1CN(*)CCO1; Piperidide = C1CCN(*)CC1; PhAc = O=C(Cc1ccccc1)*; Inp = O=C(O)C1CCNCC1; Ahx = NCCCCCC(=O)O; NHBu = CCCCN*
How the values were obtained:
VLA-4 = VLA-4 (Homo sapiens, UniProt P05556+P13612); experiment: In vitro binding inhibition of 51Cr-labeled Jurkat cells to solid phase-bound CS-1 compound (SEQ ID NO:1); format: cell-based; design: inflammatory cells that contain the VLA-4 receptor [Jurkat cells; host or cells: Jurkat (human T lymphoblastic line); settings: for Relative Potency (prodrug compound): relative to SEQ ID NO:3 = 1, potency before the prodrug compound is enzymatically converted to an active form
VLA-4, sequence (P13612 34-1032): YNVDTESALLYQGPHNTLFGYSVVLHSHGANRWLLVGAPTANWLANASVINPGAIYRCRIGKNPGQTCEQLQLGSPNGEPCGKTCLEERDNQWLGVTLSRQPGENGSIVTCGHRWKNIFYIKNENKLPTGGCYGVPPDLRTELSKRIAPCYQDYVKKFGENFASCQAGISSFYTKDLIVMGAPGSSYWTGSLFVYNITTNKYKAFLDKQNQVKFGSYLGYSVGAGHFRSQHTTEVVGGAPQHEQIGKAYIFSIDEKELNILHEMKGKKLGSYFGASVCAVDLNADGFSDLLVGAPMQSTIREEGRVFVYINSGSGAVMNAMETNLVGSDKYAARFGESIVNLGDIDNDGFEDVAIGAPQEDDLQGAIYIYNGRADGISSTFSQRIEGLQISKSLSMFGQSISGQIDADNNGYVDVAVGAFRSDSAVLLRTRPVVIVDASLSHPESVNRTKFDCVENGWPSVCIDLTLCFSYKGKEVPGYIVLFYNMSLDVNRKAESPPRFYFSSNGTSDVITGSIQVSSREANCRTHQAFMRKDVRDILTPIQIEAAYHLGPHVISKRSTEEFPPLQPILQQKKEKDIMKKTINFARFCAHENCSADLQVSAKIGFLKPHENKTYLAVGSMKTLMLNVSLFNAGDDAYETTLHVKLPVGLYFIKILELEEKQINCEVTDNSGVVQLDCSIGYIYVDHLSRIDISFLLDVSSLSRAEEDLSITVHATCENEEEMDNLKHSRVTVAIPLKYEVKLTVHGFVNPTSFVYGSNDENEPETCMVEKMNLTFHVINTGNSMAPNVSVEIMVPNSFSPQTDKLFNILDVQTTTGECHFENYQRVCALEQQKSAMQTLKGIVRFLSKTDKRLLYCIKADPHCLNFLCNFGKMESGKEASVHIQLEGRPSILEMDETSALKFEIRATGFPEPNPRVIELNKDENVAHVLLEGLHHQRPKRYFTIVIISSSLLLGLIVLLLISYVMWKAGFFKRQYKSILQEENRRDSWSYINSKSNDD
VLA-4, sequence (P05556 21-798): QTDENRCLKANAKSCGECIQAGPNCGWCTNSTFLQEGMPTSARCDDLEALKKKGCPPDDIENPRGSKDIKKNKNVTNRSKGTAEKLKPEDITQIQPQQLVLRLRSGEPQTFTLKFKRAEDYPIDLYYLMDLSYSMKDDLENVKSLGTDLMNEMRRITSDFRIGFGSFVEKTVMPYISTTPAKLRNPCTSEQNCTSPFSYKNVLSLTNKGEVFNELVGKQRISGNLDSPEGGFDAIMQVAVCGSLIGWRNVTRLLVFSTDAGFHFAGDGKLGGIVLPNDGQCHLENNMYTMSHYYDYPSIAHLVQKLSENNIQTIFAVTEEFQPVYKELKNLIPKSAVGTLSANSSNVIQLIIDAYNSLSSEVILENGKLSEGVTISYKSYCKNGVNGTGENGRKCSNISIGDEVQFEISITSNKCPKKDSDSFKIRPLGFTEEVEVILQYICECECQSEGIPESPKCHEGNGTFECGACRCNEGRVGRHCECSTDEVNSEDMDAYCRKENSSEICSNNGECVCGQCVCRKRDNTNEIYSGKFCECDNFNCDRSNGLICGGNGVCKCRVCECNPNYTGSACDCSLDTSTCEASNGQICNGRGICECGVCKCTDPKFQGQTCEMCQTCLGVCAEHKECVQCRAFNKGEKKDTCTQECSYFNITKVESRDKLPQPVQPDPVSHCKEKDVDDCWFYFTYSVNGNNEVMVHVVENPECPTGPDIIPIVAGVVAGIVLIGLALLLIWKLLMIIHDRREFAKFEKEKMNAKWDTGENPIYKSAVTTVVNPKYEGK
Outline: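 51Cr-labeled human Jurkat cells were preincubated with compound 30 min at about 22° C, then allowed to bind to wells coated with CS-1 peptide or CS-1-OVA for 30 min at 37° C. After washing, bound cells were lysed with SDS and counted. IC50 is the concentration halving binding, normalized to SEQ ID NO: 3.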

[1] = system: delayed-type hypersensitivity murine model; experiment: Adoptive transfer delayed type hypersensitivity in mice (oxazolone); format: in vivo, mouse; settings: expanded study; versus vehicle alone; 6 mg/kg/day s.c. pump, 24 hours
Description: An adoptive transfer delayed-type hypersensitivity murine model has been developed using splenic T cells primed to oxazolone. This model is described in Elices et al., Clin. Exp. Rheum., 11 (Suppl. 8):577-580 (1993), whose procedures were followed here.
Thus, BALB/c mice were shaved on the belly and painted (50 μl on the belly and 5 μl on each paw) with three percent oxazolone in acetone/olive oil (4:1) at days zero and 1. At day 5, the mice were sacrificed, their spleens removed, and splenic T cells were obtained via nylon wool columns.
Normal saline or saline containing 25×10^6 /animal of the oxazolone-immune T cells were separately injected into naive mice. The mice were then challenged by painting 10 μl of 2 percent oxazolone onto one ear each. All procedures were carried out under sterile conditions and in endotoxin-free buffers.
Prior to challenge or saline injection, the mice were implanted with pumps that subcutaneously administered normal saline, normal saline containing the compound, Compound ID No. 896.52, N-phenylacetyl-Leu-Asp-Phe-D-Pro-NH2, or normal saline containing a compound with a scrambled sequence continually at 6 mg/kg/day for a 24-hour time period. The swelling diameter at the site of challenge or saline injection was measured with a microcaliper 24 hours thereafter.
An expanded study was carried out as described above except that a scrambled compound control was not used as a control for further inhibitor compounds of Table 1 with larger groups of mice. Statistical analyses were carried out versus injection of vehicle alone.

asthmatic rabbits = experiment: Treatment of asthmatic rabbits (house dust mite antigen challenge); format: in vivo, rabbit
Description: Six New Zealand white rabbits were immunized with house dust mite antigen from birth through four months of age. Upon immunization, three rabbits received a single nebulizer administration of the inhibitor compound, Compound ID No. 1051.01, N-phenylacetyl-Leu-Asp-Phe-morpholinamide in aqueous 50 percent ethanol as diluent in an amount of 100 mg/kg, and the other three received diluent alone. All of the rabbits were challenged with house dust mite antigen about 15-30 minutes after administration of the compound, with those animals not receiving compound serving as controls.
Once immunized and challenged, the inflammatory state subsides to a basal level within about three weeks. The three animals used as controls were thereafter used as subjects for receipt of an inhibitor compound, and the three rabbits that initially received the compound can serve as controls.
Such a crossover study was done here. Thus, the three initial control rabbits were treated with the above inhibitor compound in the above diluent at a time more than three weeks after the above study, and the three previous recipients of the compound were administered the diluent alone. All six were than challenged again.
Initial pulmonary function, measured by dynamic compliance (Cdyn) and lung resistance (RL) , and bronchoalveolar lavage (BAL) to obtain an effector cell count, here eosinophils, were conducted prior to administration of the compound or diluent for both portions of this crossover study. Similar assays were then taken one-half hourly after challenge for six hours (early phase allergic reaction) and at 24 hours after challenge (late stage allergic reaction) for both portions of this study.
These studies were conducted as described by W. J. Metzger in CRC Handbook of Late Phase Reactions, W. Dorsch, ed., Chapter 35, CRC Press, Boca Raton, Fla. (1990) pages 347-362.
The results of this study for the pulmonary function parameters are shown in FIG. 4A and FIG. 4B, in which data for the challenged, inhibitor compound-treated animals are shown as open circles and data for the challenged, untreated, control animals are shown in blackened circles.

[2] = binding inhibition potency relative to standard compound of SEQ ID NO:3 = 1 (normalized IC50), about one-tenth or less assigned zero
[3] = 100 mg/kg nebulizer, late (24 hours)

| Relative Potency (VLA-4) | Compound | Relative Potency (VLA-4; [2]) | further results |
| --- | --- | --- | --- |
|  | CC(C)C[C@H](NC(=O)Cc1ccccc1)C(=O)N[C@@H](CC(=O)O)C(=O)N[C@@H](Cc1ccccc1)C(=O)N1CCC(O)CC1 [1070.02] | 604 | Percent Inhibition of post-challenge swelling [1]: 29% |
|  | CC(C)C[C@H](NC(=O)Cc1ccccc1)C(=O)N[C@@H](CC(=O)O)C(=O)N[C@@H](Cc1ccccc1)C(=O)N1CCN(CC(=O)O)CC1 [1111.06] | 2600 | Percent Inhibition of post-challenge swelling [1]: 30% |
|  | CC(C)C[C@H](NC(=O)Cc1ccccc1)C(=O)N[C@@H](CC(=O)O)C(=O)N[C@@H](Cc1ccccc1)C(=O)N1CCOCC1 [1051.01] (PhAc-Leu-Asp-Phe-Morpholide) | 709 | % Reduction, RL, Early phase (asthmatic rabbits; 100 mg/kg nebulizer, early (2-4 hours)): 80.1%; % Reduction, Cdyn, Early phase (asthmatic rabbits; 100 mg/kg nebulizer, early (2-4 hours), versus challenged controls): 94.4%; % Reduction, Cdyn, Late phase (asthmatic rabbits; [3]): 86.6%; % Reduction, RL, Late phase (asthmatic rabbits; [3]): 82.6%; reduction in eosinophils (BAL count) (asthmatic rabbits; after 24 hours, versus untreated, challenged animals): 88.1%; dynamic compliance Cdyn over six hours (FIG. 4A) (asthmatic rabbits; six hours after challenge): stayed at about the initial value; lung resistance RL over six hours (FIG. 4B) (asthmatic rabbits; six hours after challenge): remained between the initial value and about 200% of that value |
| .94 | CC(C)C[C@H](NC(=O)[C@H](N)Cc1ccccc1)C(=O)N[C@@H](CC(=O)O)C(=O)N[C@H](C(=O)N1CCC[C@@H]1C(N)=O)C(C)C [926.05] (H-[dF]LDV[dP]-NH2) |  |  |
| 2.5 | CC(C)C[C@H](NC(=O)[C@H]1CCCN1)C(=O)N[C@@H](CC(=O)O)C(=O)N[C@@H](Cc1ccccc1)C(=O)N1CCC[C@@H]1C(N)=O [951.11] (H-[dP]LDF[dP]-NH2) |  |  |
|  | CC(C)C[C@H](NC(=O)Cc1ccccc1)C(=O)N[C@@H](CC(=O)O)C(=O)NC1CCCCN(CC(N)=O)C1=O (some centres unmarked) [1057.06] | 97 |  |
|  | CC(C)C[C@H](NC(=O)Cc1ccccc1)C(=O)N[C@@H](CC(=O)O)C(=O)N[C@@H](Cc1ccc([N+](=O)[O-])cc1)C(=O)N1CCC[C@@H]1C(N)=O [896.68] (PhAc-LD[Phe(4-NO2)][dP]-NH2) | 39.9 |  |
|  | NC(=O)[C@H]1CCCN1C(=O)[C@H](Cc1ccccc1)NC(=O)[C@H](CC(=O)O)NC(=O)[C@H](CC1CCCCC1)NC(=O)Cc1ccccc1 [1160.01] (PhAc-[Cha]DF[dP]-NH2) | 213 |  |
|  | CCCCCCCCCC(=O)OC1CCN(C(=O)[C@H](Cc2ccccc2)NC(=O)[C@H](CC(=O)O)NC(=O)[C@H](CC(C)C)NC(=O)Cc2ccccc2)CC1 [1068.06] |  | Relative Potency (prodrug compound) (VLA-4): .63 |
| 1.99 | CC[C@H](C)[C@H](N)C(=O)N[C@@H](CC(C)C)C(=O)N[C@@H](CC(=O)O)C(=O)N[C@@H](Cc1ccccc1)C(=O)N1CCC[C@H]1C(N)=O [926.12] (H-ILDFP-NH2) |  |  |
| 16.9 | CC(C)C[C@H](NC(=O)[C@@H](N)Cc1ccccc1)C(=O)N[C@@H](CC(=O)O)C(=O)N[C@@H](Cc1ccccc1)C(=O)N1CCC[C@@H]1C(N)=O [896.27] (H-FLDF[dP]-NH2) |  |  |
| 0 | CC(=O)[C@H]1C[C@@H](CC(=O)N[C@@H](CC(=O)O)C(=O)N[C@@H](Cc2ccccc2)C(=O)N2CCC[C@@H]2C(N)=O)C1(C)C [1056.03] |  |  |
|  | CC(C)C[C@H](NC(=O)Cc1ccccc1)C(=O)N[C@@H](CC(=O)O)C(=O)NC1Cc2ccccc2N(CC(N)=O)C1=O (some centres unmarked) [997.11] | 44.8 |  |
| .63 | CC(C)C[C@H](NS(=O)(=O)c1ccc(Br)cc1)C(=O)N[C@@H](CC(=O)O)C(=O)N[C@@H](Cc1ccccc1)C(=O)N1CCC[C@@H]1C(N)=O [951.10] (Brosyl-LDF[dP]-NH2) |  |  |
| 0 | NC(=O)[C@H]1CCCN1C(=O)[C@H](Cc1ccccc1)NC(=O)[C@H](CC(=O)O)NC(=O)CCCCC1CCCCC1 [1056.08] |  |  |
|  | CC(C)C[C@H](NC(=O)Cc1ccccc1)C(=O)N[C@@H](CC(=O)O)C(=O)N[C@@H](Cc1ccccc1)C(=O)N1CCC[C@H]1CO [951.17] | 163 |  |
|  | CC(C)C[C@H](NC(=O)Cc1ccccc1)C(=O)N[C@@H](CC(=O)O)C(=O)NN(Cc1ccccc1)C(=O)C1CCCC1 [997.15] | 1.28 |  |
| 0 | NC(=O)[C@H]1CCCN1C(=O)[C@H](Cc1ccccc1)NC(=O)[C@H](CC(=O)O)NC(=O)CC12CC3CC(CC(C3)C1)C2 [1056.13] |  |  |
|  | CCCCCCCCCCCCCCCCCCNC(=O)CCCCCNC(=O)[C@@H]1CCCN1C(=O)[C@H](Cc1ccccc1)NC(=O)[C@H](CC(=O)O)NC(=O)[C@H](CC(C)C)NC(=O)Cc1ccccc1 [1068.01] (PhAc-LDFP[Ahx]-NHOctadecyl) |  | Relative Potency (prodrug compound) (VLA-4): .91 |
| 5.01 | Cc1ccc(C(=O)N[C@@H](CC(C)C)C(=O)N[C@@H](CC(=O)O)C(=O)N[C@H](C(=O)N2CCC[C@@H]2C(N)=O)C(C)C)cc1C [896.37] |  |  |
|  | CCCCNC(=O)[C@H](Cc1ccccc1)NC(=O)[C@H](CC(=O)O)NC(=O)[C@H](CC(C)C)NC(=O)Cc1ccccc1 [1051.03] (PhAc-Leu-Asp-Phe-NHBu) | 2.82 |  |
| 0.01 | CC(C)C[C@H](N)C(=O)N[C@@H](CC(=O)O)C(=O)N[C@H](C(N)=O)C(C)C [926.29] (H-Leu-Asp-Val-NH2) |  |  |
| 1.88 | CC(C)C[C@H](NC(=O)[C@@H](N)Cc1ccccc1)C(=O)N[C@@H](CC(=O)O)C(=O)N[C@H](C(=O)N1CCC[C@@H]1C(N)=O)C(C)C [926.04] (H-FLDV[dP]-NH2) |  |  |
|  | CC(C)C[C@H](NC(=O)Cc1ccccc1)C(=O)N[C@@H](CC(=O)O)C(=O)N[C@H]1CCN(C2CCCCC2)C1=O [1057.02] | 6.57 |  |
|  | CC(C)C[C@H](NC(=O)Cc1ccccc1)C(=O)N[C@@H](CC(=O)O)C(=O)N[C@@H](Cc1ccccc1)C(=O)N1CCC(C(=O)O)CC1 [1111.04] (PhAc-LDF[Inp]-OH) | 836 |  |

| Compound | Relative Potency (VLA-4) | Relative Potency (VLA-4; [2]) | further results |
| --- | --- | --- | --- |
| CC(=O)N[C@H]1[C@H](OCCCCCC(=O)N[C@@H](Cc2ccccc2)C(=O)N[C@@H](CC(C)C)C(=O)N[C@@H](CC(=O)O)C(=O)N[C@@H](Cc2ccccc2)C(=O)N2CCCCC2)O[C@H](CO)[C@@H](O)[C@@H]1O [1063.01] (Ac-[X20]FLDF-Piperidide) | 40.7 |  |  |
| CC(C)C[C@@H](C(=O)N[C@@H](CC(=O)O)C(=O)N[C@@H](Cc1ccccc1)C(=O)N1CCCCC1)N1C(=O)N[C@H](c2ccccc2)C1=O [1047.01] | 34.4 |  |  |
| CC(C)CN(CC(C)C)C(=O)N[C@@H](CC(=O)O)C(=O)N[C@H](C(=O)N1CCCCC1)c1ccccc1 [1027.01] | .5 |  |  |
| CC(C)C[C@@H](C(=O)N[C@@H](CC(=O)O)C(=O)N[C@@H](Cc1ccccc1)C(=O)N1CCCCC1)N1C(=O)N[C@@H](Cc2ccccc2)C1=O [1047.06] | 6.26 |  |  |

Reference: US5770573A, “CS-1 peptidomimetics, compositions and methods of using the same” (Cytel Corporation, priority 1995, dated 1998)
